Our source for the IC50 values is patent publication US7816535B2, “Vinyl-phenyl derivatives for inflammation and immune-related uses” (Synta Pharmaceuticals Corp., priority 2006, dated 2010).

Counter-ions that a name gives are not always drawn. Bounds are passed on as bounds.

For the first assay, the system named is IL-2 production. As to the kind of experiment: Inhibition of IL-2 production in PHA-activated Jurkat cells (ELISA). In kind it is cell-based. Particulars: Homo sapiens, Jurkat, 20 h, PHA 2.5 μg/mL, IL-2 ELISA. The protocol:
Jurkat cells were placed in a 96 well plate (0.5 million cells per well in 1% FBS medium) then a test compound of this invention was added at different concentrations. After 10 minutes, the cells were activated with PHA (final concentration 2.5 μg/mL) and incubated for 20 hours at 37° C. under CO2. The final volume was 200 μL. Following incubation, the cells were centrifuged and the supernatants collected and stored at −70° C. prior to assaying for IL-2 production. A commercial ELISA kit (IL-2 Eli-pair, Diaclone Research, Besancon, France) was used to detect production of IL-2, from which dose response curves were obtained. The IC50 value was calculated as the concentration at which 50% of maximum IL-2 production after stimulation was inhibited versus a non-stimulation control.
A general note: An ELISA detects its analyte on a solid surface through an enzyme-linked reagent.
As usually defined, the IC50 is the concentration that inhibits the measured activity by half. A low value points to higher potency. In turn, `CC1=C(c2ccc(NC(=O)c3c(F)cccc3F)cc2)CN(c2nccs2)CC1` [Compound 44, 2,6-Difluoro-N-[4-(1-thiazol-2-yl-4-methyl-1,2,5,6-tetrahydro-pyridin-3-yl)-phenyl]-benzamide] showed an IC50 of 12 nM. This lies in the double-digit nanomolar range. For `COC(=O)N1CCC(C)=C(c2ccc(NC(=O)c3ccncc3F)cc2)C1` [Compound 45, N-[4-(1-methoxycarbonyl-4-methyl-1,2,5,6-tetrahydro-pyridin-3-yl)-phenyl]-3-fluoro-isonicotinamide], 248 nM corresponded to half-maximal inhibition (IC50).

Turning to `CCOC(=O)N1CCC(C)=C(c2ccc(NC(=O)c3snnc3C)cc2)C1` [Compound 47, 4-Methyl-[1,2,3]thiadiazole-5-carboxylic acid [4-(1-ethoxycarbonyl-4-methyl-1,2,5,6-tetrahydro-pyridin-3-yl)-phenyl]-amide], the half-maximal inhibitory concentration (IC50) is 411 nM. Still for that read-out and setting: under `CCOC(=O)N1CCC(C)=C(c2ccc(NC(=O)c3ccncc3C)cc2)C1` [Compound 48, N-[4-(1-ethoxycarbonyl-4-methyl-1,2,5,6-tetrahydro-pyridin-3-yl)-phenyl]-3-methyl-isonicotinamide] stands 156 nM; under `COC(=O)N1CCC(C)=C(c2ccc(NC(=O)c3c(F)cccc3F)cc2)C1` [Compound 49, 2,6-Difluoro-N-[4-(1-methoxycarbonyl-4-methyl-1,2,5,6-tetrahydro-pyridin-3-yl)-phenyl]-benzamide], 16.2 nM; under `CC1=C(c2ccc(NC(=O)c3ccncc3C)cc2)CN(C(=O)OCc2ccccc2)CC1` [Compound 51, N-[4-(1-benzyloxycarbonyl-4-methyl-1,2,5,6-tetrahydro-pyridin-3-yl)-phenyl]-3-methyl-isonicotinamide], 153 nM. Still for that read-out and setting: the figure for `CC1=C(c2ccc(NC(=O)c3ccncc3F)cc2)CN(C(=O)Oc2ccc([N+](=O)[O-])cc2)CC1` [Compound 52, N-{4-[1-(4-nitro-phenyloxycarbonyl)-4-methyl-1,2,5,6-tetrahydro-pyridin-3-yl]-phenyl}-3-fluoro-isonicotinamide] is 651 nM; for `C=CCOC(=O)N1CCC(C)=C(c2ccc(NC(=O)c3ccncc3F)cc2)C1` [Compound 53, N-[4-(1-allyloxycarbonyl-4-methyl-1,2,5,6-tetrahydro-pyridin-3-yl)-phenyl]-3-fluoro-isonicotinamide] it is 81.3 nM; for `C=CCOC(=O)N1CCC(c2ccc(NC(=O)c3c(F)cccc3F)cc2)=C(C)C1` [Compound 54, 2,6-Difluoro-N-[4-(1-allyloxycarbonyl-3-methyl-1,2,5,6-tetrahydro-pyridin-4-yl)-phenyl]-benzamide] it is 235 nM. On the same count and under the same terms, under `CC1=C(c2ccc(NC(=O)c3c(F)cccc3F)cc2)CCN(C(=O)Oc2ccccc2)C1` [Compound 55, 2,6-Difluoro-N-[4-(1-phenyloxycarbonyl-3-methyl-1,2,5,6-tetrahydro-pyridin-4-yl)-phenyl]-benzamide] stands 941 nM; under `CCOC(=O)C1=C(c2ccc(NC(=O)c3c(F)cccc3F)cc2)CCN(C#N)C1` [Compound 56, 2,6-Difluoro-N-[4-(1-cyano-3-ethoxycarbonyl-1,2,5,6-tetrahydro-pyridin-4-yl)-phenyl]-benzamide], greater than 1000 nM.

Molecule `CC1=C(c2ccc(NC(=O)c3ccncc3F)cc2)CN(C#N)CC1` [Compound 57] had an IC50 greater than 1000 nM. The same measure, in the same setting: under `CC1=C(c2ccc(NC(=O)c3c(F)cccc3F)cc2)CN(C#N)CC1` [Compound 58, 2,6-Difluoro-N-[4-(1-cyano-4-methyl-1,2,5,6-tetrahydro-pyridin-3-yl)-phenyl]-benzamide] stands greater than 1000 nM.

The same assay, now with this note: PHA 2.5 μg/mL, 20 hours, IL-2 ELISA, hydrochloride.
Take `CCOC(=O)N1CCC(C)=C(c2ccc(NC(=O)c3ccncc3C)cc2)C1` [Compound 50, N-[4-(1-ethoxycarbonyl-4-methyl-1,2,5,6-tetrahydro-pyridin-3-yl)-phenyl]-3-methyl-isonicotinamide, hydrochloride]: the IC50 was determined as 177 nM. This lies in the sub-micromolar range.
